Assay results reported in paper PMC7891601 (Clinical Pharmacology and Therapeutics, 2020).
Like-named read-outs stand apart in the source and are kept apart here. One block for each molecule: values may come before it.

Tests used:
[1] = type: in vivo, human; settings: for impact of metformin administration on CLr: control vs baseline; for AUC / CLr: adjusted geometric mean; for AUC: AUC0–24; for CLr: 0–24 h; for mean plasma concentration (Cav): mean ± SEM
[2] = tested on: MATE1/2‐K; assay: Nonlinear regression of CLr ratio vs pyrimethamine plasma concentration; type: in vivo, human; settings: regression against pyrimethamine Cav
[3] = target: T1, OCT2 (Homo sapiens, UniProt O15244); type: cell-based; settings: In vitro Ki of pyrimethamine, HEK293
T1 sequence (O15244 1-555): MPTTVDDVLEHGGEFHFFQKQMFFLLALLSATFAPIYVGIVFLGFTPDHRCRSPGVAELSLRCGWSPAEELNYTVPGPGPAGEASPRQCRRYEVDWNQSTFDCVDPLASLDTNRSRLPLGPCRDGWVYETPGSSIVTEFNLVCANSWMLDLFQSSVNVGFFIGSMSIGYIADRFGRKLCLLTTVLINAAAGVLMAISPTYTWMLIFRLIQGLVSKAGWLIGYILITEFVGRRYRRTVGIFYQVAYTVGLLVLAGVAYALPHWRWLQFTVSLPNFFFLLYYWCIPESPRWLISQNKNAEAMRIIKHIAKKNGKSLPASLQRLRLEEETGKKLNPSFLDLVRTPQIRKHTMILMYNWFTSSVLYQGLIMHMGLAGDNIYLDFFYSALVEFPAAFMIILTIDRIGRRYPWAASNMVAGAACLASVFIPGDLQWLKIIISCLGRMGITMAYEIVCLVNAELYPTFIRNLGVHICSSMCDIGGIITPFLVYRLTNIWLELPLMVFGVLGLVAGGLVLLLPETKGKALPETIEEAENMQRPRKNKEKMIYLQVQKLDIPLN

[4] = target: T2, MATE1 (Homo sapiens, UniProt Q96FL8); type: cell-based; settings: In vitro Ki of pyrimethamine, 2 min, HEK293
T2 sequence (Q96FL8 1-570): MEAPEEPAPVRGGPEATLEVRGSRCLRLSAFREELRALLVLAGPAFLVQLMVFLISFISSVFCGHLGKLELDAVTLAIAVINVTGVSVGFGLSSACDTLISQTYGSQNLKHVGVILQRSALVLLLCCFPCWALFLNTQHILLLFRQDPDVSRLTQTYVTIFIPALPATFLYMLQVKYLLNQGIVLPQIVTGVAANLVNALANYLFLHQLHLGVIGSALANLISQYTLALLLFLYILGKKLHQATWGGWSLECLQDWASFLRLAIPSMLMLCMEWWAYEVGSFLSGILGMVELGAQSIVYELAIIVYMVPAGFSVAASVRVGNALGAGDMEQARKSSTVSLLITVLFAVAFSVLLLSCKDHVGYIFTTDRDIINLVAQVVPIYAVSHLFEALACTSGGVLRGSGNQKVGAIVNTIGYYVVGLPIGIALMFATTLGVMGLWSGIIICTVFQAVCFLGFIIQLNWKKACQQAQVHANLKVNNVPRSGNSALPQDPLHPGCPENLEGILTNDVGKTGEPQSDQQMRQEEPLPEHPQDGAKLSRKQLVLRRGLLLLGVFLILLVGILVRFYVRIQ

[5] = target: MATE2‐K (Homo sapiens, UniProt Q86VL8); type: cell-based; settings: In vitro Ki of pyrimethamine, HEK293
[6] = target: T3, OAT1 (Homo sapiens, UniProt Q4U2R8); assay: Inhibition of PAH uptake in OAT1-expressing HEK293 cells; type: cell-based
T3 sequence (Q4U2R8 1-563): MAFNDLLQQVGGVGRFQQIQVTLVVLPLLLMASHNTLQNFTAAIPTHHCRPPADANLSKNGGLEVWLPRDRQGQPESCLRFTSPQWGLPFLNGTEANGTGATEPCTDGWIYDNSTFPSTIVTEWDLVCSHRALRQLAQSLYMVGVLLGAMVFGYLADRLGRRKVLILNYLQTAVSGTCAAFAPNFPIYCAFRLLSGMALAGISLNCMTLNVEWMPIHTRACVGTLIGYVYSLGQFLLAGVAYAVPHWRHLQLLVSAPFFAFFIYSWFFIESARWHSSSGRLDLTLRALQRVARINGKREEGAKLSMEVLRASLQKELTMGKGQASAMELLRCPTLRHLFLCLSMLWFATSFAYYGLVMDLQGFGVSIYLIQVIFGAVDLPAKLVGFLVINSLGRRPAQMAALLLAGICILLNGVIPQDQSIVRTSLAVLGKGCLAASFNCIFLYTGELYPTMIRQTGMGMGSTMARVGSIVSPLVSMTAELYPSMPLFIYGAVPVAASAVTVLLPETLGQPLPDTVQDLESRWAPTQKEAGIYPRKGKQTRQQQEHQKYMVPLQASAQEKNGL

[7] = target: T4, OAT3 (Homo sapiens, UniProt Q8TCC7); assay: Inhibition of ES uptake in OAT3-expressing HEK293 cells; type: cell-based
T4 sequence (Q8TCC7 1-542): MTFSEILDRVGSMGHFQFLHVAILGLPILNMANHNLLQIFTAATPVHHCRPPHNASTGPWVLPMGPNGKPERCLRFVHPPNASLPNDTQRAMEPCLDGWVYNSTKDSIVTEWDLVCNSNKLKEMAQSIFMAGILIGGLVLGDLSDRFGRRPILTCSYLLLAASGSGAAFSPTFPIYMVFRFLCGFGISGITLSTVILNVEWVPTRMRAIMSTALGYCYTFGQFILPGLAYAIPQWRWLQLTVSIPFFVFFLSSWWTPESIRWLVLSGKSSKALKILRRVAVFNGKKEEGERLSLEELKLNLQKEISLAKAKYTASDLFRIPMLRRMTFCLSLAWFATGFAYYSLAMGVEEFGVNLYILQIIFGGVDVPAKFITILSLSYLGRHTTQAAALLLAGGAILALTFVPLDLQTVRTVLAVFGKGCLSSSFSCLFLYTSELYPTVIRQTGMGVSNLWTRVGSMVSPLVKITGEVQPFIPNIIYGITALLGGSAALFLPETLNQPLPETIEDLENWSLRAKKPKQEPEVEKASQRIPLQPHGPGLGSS

[8] = target: T5, SLC29A1/equilibrative nucleoside transporter 1 (Homo sapiens, UniProt Q99808); assay: Uptake of m1A in HEK293 cells with and without inhibitors; type: cell-based; settings: m1A 100 μM, HEK293, 15 min, inhibitor 10 μM
T5 sequence (Q99808 2-456): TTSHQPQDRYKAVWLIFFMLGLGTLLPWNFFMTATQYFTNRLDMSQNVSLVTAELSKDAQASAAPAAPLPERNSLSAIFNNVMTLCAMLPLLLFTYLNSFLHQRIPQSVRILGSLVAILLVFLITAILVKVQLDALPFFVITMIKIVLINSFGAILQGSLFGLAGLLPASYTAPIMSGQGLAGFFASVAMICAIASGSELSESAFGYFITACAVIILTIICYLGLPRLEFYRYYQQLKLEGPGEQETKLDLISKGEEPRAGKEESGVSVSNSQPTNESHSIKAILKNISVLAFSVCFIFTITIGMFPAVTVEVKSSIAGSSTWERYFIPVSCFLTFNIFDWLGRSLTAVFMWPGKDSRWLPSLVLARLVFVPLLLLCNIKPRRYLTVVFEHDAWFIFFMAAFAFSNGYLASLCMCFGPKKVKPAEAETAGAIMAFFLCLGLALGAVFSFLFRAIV

[9] = tested on: MATE1; settings: read-out: Ki for MATE1‐mediated creatinine uptake; cited from earlier work
[10] = tested on: MATE2‐K; settings: read-out: Ki for MATE2‐K‐mediated creatinine uptake; cited from earlier work
[11] = tested on: OAT2; settings: read-out: half‐maximal inhibitory concentration, OAT2; cited from earlier work
[12] = in humans; cited from earlier work
[13] = pyrimethamine 75 mg + metformin
[14] = control phase (metformin 500 mg alone)
[15] = pyrimethamine 10 mg + metformin
[16] = pyrimethamine 25 mg + metformin

MATE2‐K (Homo sapiens, UniProt Q86VL8), sequence (Q86VL8 1-566 isoform Q86VL8-3): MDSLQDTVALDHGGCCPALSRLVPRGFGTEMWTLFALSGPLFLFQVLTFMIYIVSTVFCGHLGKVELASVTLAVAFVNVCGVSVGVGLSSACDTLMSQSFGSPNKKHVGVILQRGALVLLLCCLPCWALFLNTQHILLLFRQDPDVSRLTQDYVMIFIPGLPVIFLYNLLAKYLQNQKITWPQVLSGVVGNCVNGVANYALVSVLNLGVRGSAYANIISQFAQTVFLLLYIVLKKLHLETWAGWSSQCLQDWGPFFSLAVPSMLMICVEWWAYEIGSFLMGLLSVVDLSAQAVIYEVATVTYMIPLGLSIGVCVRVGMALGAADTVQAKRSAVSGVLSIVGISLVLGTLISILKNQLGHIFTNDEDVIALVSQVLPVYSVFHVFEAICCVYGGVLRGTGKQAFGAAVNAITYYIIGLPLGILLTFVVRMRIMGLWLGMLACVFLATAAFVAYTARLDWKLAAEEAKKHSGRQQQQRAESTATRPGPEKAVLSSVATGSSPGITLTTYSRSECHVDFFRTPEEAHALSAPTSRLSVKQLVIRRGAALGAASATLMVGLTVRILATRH

SMILES: CN1CC(=O)NC1=N [Creatinine, creatinine]
impact of metformin administration on CLr [1]: < 7%
f PYR (contribution of tubular secretion to urinary excretion) [2]: 26%

SMILES: CN(C)C(=N)N=C(N)N [Metformin, metformin]
decrease in CLr by pyrimethamine ([1]; pyrimethamine 10 mg vs control): 12%
decrease in CLr by pyrimethamine ([1]; pyrimethamine 25 mg vs control): 34%
increase in AUC by pyrimethamine ([1]; pyrimethamine 25 mg vs control): 24%
AUC [1, 13]: 122.9 µM·h
decrease in CLr by pyrimethamine ([1]; pyrimethamine 75 mg vs control): 55%
increase in AUC by pyrimethamine ([1]; pyrimethamine 75 mg vs control): 69%

More lines, main results first:

CLr [1, 14]: 545.1 mL/min
AUC [1, 14]: 0.2912 µM·h
CLr [1, 15]: 584.6 mL/min
AUC [1, 15]: 0.2142 µM·h
CLr [1, 16]: 603.1 mL/min
AUC [1, 16]: 0.1772 µM·h
CLr [1, 13]: 423.7 mL/min
AUC [1, 13]: 0.1647 µM·h
decrease in CLr by pyrimethamine ([1]; pyrimethamine 75 mg vs control): 22%
SMILES: Cc1ncc(CO)c(C(=O)O)c1O [PDA, pyridoxic acid]

contribution of the tubular secretion ([1]; assumed from CLr vs creatinine clearance at 75 mg): 41%
CLr relative to creatinine clearance ([1]; control conditions, vs corresponding creatinine clearance): 1.3 fold
impact of metformin administration on CLr [1]: < 7%
SMILES: Cn1cnc2c(ncn2[C@@H]2O[C@H](CO)[C@@H](O)[C@H]2O)c1=N [m^1A, N ^1‐methyladenosine]

mean plasma concentration (Cav) ([1]; 10 mg single oral dose): 287 ± 24 nM
mean plasma concentration (Cav) ([1]; 25 mg single oral dose): 781 ± 31 nM
mean plasma concentration (Cav) ([1]; 75 mg single oral dose): 2470 ± 180 nM
Ki ([3]; OCT2, substrate 1‐NMN 10 μM, 2 min): 41.2 ± 9.1 µM
Ki ([3]; OCT2, substrate m1A 100 μM, 30 min): 0.466 ± 0.043 µM
Ki ([3]; OCT2, substrate metformin 10 μM, 2 min): 37.9 ± 5.6 µM
Ki ([4]; MATE1, substrate 1‐NMN 10 μM): 0.125 ± 0.026 µM
Ki ([4]; MATE1, substrate metformin 10 μM): 0.154 ± 0.029 µM
Ki ([5]; substrate 1‐NMN 10 μM, 2 min): 0.0821 ± 0.018 µM
Ki ([5]; substrate m1A 100 μM, 30 min): 0.068 ± 0.015 µM
Ki ([5]; substrate metformin 10 μM, 2 min): 0.0941 ± 0.016 µM
IC50 [6]: 241 ± 55 µM
IC50 [7]: 9.69 ± 2.27 µM
effect of inhibitor on uptake of m1A (ENT1) [8]: minimal
SMILES: CCc1nc(N)nc(N)c1-c1ccc(Cl)cc1 [pyrimethamine]
Ki [9]: 0.17 µM
Ki [10]: 0.22 µM
IC50 [11]: > 100 µM
elimination half‐life [12]: ca. 100 hours
